Entries after “also recorded” stand apart in the source; their conditions may differ. Where a SMILES comes first, the peptide text is derived from it. [ ]: non-standard residue; d: D form.
Tests used:
[1] = system: mitochondria purified from B-lymphoblastoid Raji cells; test: Mitochondrial membrane potential of TMRM-loaded isolated mitochondria; assay type: biochemical, human
Description: (§1) Raji cells were treated with Shepherdin or control scrambled peptidomimetic (100 μM) or 17-AAG (5 μM), loaded with the mitochondrial membrane potential-sensitive fluorescent dye JC-1, and analyzed for changes in green/red fluorescence ratio by flow cytometry. For experiments in a cell-free system, purified mitochondria isolated from primary normal cells, various tumor cells types, or normal mouse organs were suspended in SB buffer. […] For these experiments, TMRM-loaded mitochondria in SB buffer were allowed to reach stable fluorescence, which was set as fully polarized state (maximum membrane potential). The fluorescence intensity after treatment with 2 mM CaCl2 was set as minimum membrane potential (fully depolarized state). Changes in fluorescence intensity after each treatment were plotted as a ratio between maximum and minimum membrane potential.

[2] = system: purified HeLa cell mitochondria; test: as above; assay type: biochemical, human; conditions: TMRM-loaded HeLa cell (tumor) mitochondria
Description: as §1

[3] = system: mitochondria isolated from WS-1 normal human fibroblasts; test: as above; assay type: biochemical
Description: as §1
Alternatively, H460 cells were labeled with the fluorescent dye JC-1 (Molecular Probes), and analyzed for changes in red/green (F1-2/F1-1) fluorescence ratio after treatment with the various agents, by multiparametric flow cytometry. Cytochrome c content in pellets or supernatants of drug-treated isolated mitochondria was determined by Western blotting.

[4] = system: Ras-transformed NIH3T3 mitochondria; test: as above; assay type: biochemical
Description: as §1

[5] = system: normal mouse brain mitochondria; test: as above; assay type: biochemical
Description: as §1

[6] = system: normal mouse liver mitochondria; test: as above; assay type: biochemical
Description: as §1

[7] = system: mitochondria isolated from normal NIH3T3 cells; test: as above; assay type: biochemical
Description: as §1, with “potential. In some experiments, increasing concentrations (10-100 μg) of TMRM-loaded mitochondria isolated from HeLa or MCF-7 cells were diluted in 3 ml of SB buffer, normalized to a total protein concentration of 500 μg with BSA, and analyzed for changes in membrane potential in response to control or the various Hsp90 antagonists.” for “potential.”

[8] = system: mitochondria isolated from Raji lymphoblastoid cells; test: Cytochrome c release from isolated mitochondria (Western blotting); assay type: biochemical, human
Description: (§2) Tumor cell types were treated with controls or the various Hsp90 antagonists, and cytosolic extracts were harvested at increasing time intervals between 5-30 minutes and analyzed by Western blotting. For experiments in a cell-free system, purified mitochondria (20 μg) were suspended in 500 μl of SB buffer (0.2 M sucrose, 10 mM Tris-MOPS, pH 7.4, 5 mM succinate, 1 mM sodium phosphate, 10 μM EGTA-Tris, and 2 μM rotenone). Samples were treated with controls or the various Hsp90 antagonists for 20 minutes at 22° C. At the end of each incubation reaction, mitochondria and supernatants were separated by centrifugation at 6,000×g for 10 minutes, and analyzed by Western blotting.

[9] = system: mitochondria isolated from a p53−/− mouse lymphoma specimen; test: as above; assay type: biochemical
Description: as §2

[10] = system: primary human sarcoma sample mitochondria; test: as above; assay type: biochemical
Description: as §2

[11] = system: normal mouse liver mitochondria; test: Cytochrome c and Smac content of isolated mitochondria (Western blotting); assay type: biochemical
Description: as §2

[12] = system: Raji cells; test: Mitochondrial membrane potential in JC-1-loaded cells (flow cytometry); assay type: cell-based, human; conditions: within five minutes of addition
Description: as §1

[13] = system: HeLa cells; test: Cytochrome c release into the cytosol of treated tumor cells (Western blotting); assay type: cell-based, human
[14] = system: HeLa cells; test: Time-lapse videomicroscopy of cell morphology; assay type: cell-based, human; conditions: within minutes
Description: For time lapse videomicroscopy, HeLa cells were maintained in 35 mm glass-bottom tissue-culture dishes (Mat-tek). Prior to imaging, cells were incubated with 400 nM CM-H2XRos (M7513, Molecular Probes) under growth conditions for 15 minutes. After washes, fresh culture medium was added, and cells were imaged in an environmental chamber (PDMI-2; Harvard Apparatus) in complete medium with CO2 exchange (0.5 liters/minute) at 37° C. Cells were imaged every 1 minute using a 100× phase contrast lens with a green interference filter on an inverted microscope (Olympus IX-70). Images were captured on a CoolSnap HQ CCD camera (Roper Scientific) and concatenated using Metamorph software (Universal Imaging Corp.). Cells were imaged in the absence of any reagent for the first 10 minutes of the time lapse, at which point Shepherdin or cell permeable scrambled peptidomimetic was added dropwise in between acquisitions. Phase-contrast images of mitochondria were verified by the presence of CM-H2XRos labeling.

[15] = system: tumor cells; test: Cell viability by MTT, tumor cell types; assay type: cell-based; conditions: 1 hour exposure; MTT
[16] = system: normal human fibroblast cell types (WS-1, HGF, HFF); test: Cell viability by MTT, normal human fibroblast cell types
Description: Changes in protein expression in the various experiments of siRNA targeting were assessed by Western blotting. For analysis of TRAP-1-directed cytoprotection, primary nontransformed human fibroblasts HFF and WS-1 were transfected with control pcDNA3 or TRAP-1 cDNA by lipofectamine for 24 hours, exposed to increasing concentrations (0-1 μM) of the cell death stimulus staurosporine (STS), and analyzed for cell viability after additional 24 hours incubation by MTT. For analysis of apoptosis, p53+/+ or p53−/−HCT116 cells were treated with control or ANT-GA (100 μM), and analyzed for DEVDase activity (CaspaTag) and propidium iodide staining by simultaneous multiparametric flow cytometry, as described (Dohi et al., J. Clin. Invest. 114(8):1117-27, (2004); Plescia et al., Cancer Cell, 7:457-468, (2005)).

[17] = system: HeLa cells; test: Cell viability by MTT, HeLa cells; conditions: 50 μM; cultures not treated with CsA

CSCC[C@@H](NC(=O)[C@@H](CCCCN)NC(=O)[C@@H](Cc1c[nH]c2ccccc12)NC(=O)[C@@H](CCCCN)NC(=O)[C@H](N)CCCCN)C(=O)N[C@H](CCCNC(=N)N)C(=O)N[C@H](CCCNC(=N)N)C(=O)N[C@H](CC(N)=O)C(=O)N[C@H](CCC(N)=O)C(=O)N[C@H](Cc1ccccc1)C(=O)N[C@H](Cc1c[nH]c2ccccc12)C(=O)N[C@@H](C(=O)N[C@H](CCCCN)C(=O)N[C@@H](C(=O)N[C@H](CCC(N)=O)C(=O)N[C@H](CCCNC(=N)N)C(=O)N[C@H](CC(C)C)C(=O)N[C@H](Cc1ccccc1)C(=O)N[C@H](C)C(=O)N[C@H](CS)C(=O)NCC(=O)N[C@H](CO)C(=O)N[C@H](CO)C(=O)N[C@H](Cc1c[nH]cn1)C(=O)N[C@H](CCCCN)C(N)=O)C(C)C)C(C)C [Sheph-ANT] (H-[dK][dK][dW][dK][dM][dR][dR][dN][dQ][dF][dW][dV][dK][dV][dQ][dR][dL][dF][dA][dC]G[dS][dS][dH][dK]-NH2; N-terminus and C-terminus assumed)
membrane potential of mitochondria [1]: readily depolarized mitochondria
mitochondrial membrane potential [2]: caused sudden loss of mitochondrial membrane potential; also recorded: induces a change in mitochondrial membrane potential
membrane potential of mitochondria ([3]; WS-1 normal human fibroblasts): did not cause loss of membrane potential
membrane potential of mitochondria ([3]; glucose-deprived WS-1, compared with Scram-ANT): did not significantly affect membrane potential
mitochondrial membrane potential of normal cells ([3]; summary for normal cells (FIGS. 4A, C, E, G)): did not affect mitochondrial membrane potential of normal cells over background levels
membrane potential of mitochondria [4]: readily depolarized Ras-transformed NIH3T3 mitochondria
membrane potential of mitochondria [5]: did not affect membrane potential
membrane potential of mitochondria [6]: did not affect membrane potential; also recorded: had no effect on normal liver mitochondria, with or without CsA
membrane potential of mitochondria [7]: had no effect on mitochondria isolated from normal NIH3T3 cells
release of cytochrome c from mitochondria [8]: concentration-dependent release of cytochrome c; also recorded: reduces mitochondrial Cyt c in a dose-dependent manner
cytochrome c release from mitochondria [9]: induced cytochrome c release
release of cytochrome c from mitochondria [10]: concentration-dependent release of cytochrome c; also recorded: increases Cyt c release into the supernatant in a dose-dependent manner
cytochrome c or Smac levels of mitochondria [11]: had no effect on cytochrome c or Smac levels
mitochondrial membrane potential in tumor cells [12]: induced loss of mitochondrial membrane potential in tumor cells
cytochrome c release into the cytosol [13]: discharge of mitochondrial cytochrome c in the cytosol
morphological features of apoptosis [14]: exhibited within minutes morphological features of apoptosis
tumor cell viability / killing [15]: sufficient to kill disparate tumor cell types in a concentration-dependent manner; also recorded: triggered selective tumor cell death
viability of normal human fibroblast cell types [16]: did not affect the viability of various normal human fibroblast cell types
cell killing [17]: complete cell killing

From patent US9987294B2, “Mitochondria-targeted anti-tumor agents” (University of Massachusetts, priority 2007, dated 2018)
